The text below walks through data of US6620792B1, “Pharmaceutical compositions containing monosialoganglioside GM1 or derivative thereof suitable for the treatment of parkinson's disease” (Fidia S.p.A., priority 1992, dated 2003).

Common to all, as to format: in vivo
Experiment [1] concerns MPTP-treated squirrel monkeys. Put plainly: motor behaviour rating of MPTP-treated squirrel monkeys. The protocol: In vivo experiments with GM1 were carried out on 15 (male or female) squirrel monkeys and 4 cynomolgus monkeys.
The monkeys were administered MPTP saline solution after being anaesthesized i.m. with ketamine HCl 5 mg/kg, as follows:
2 mg/kg/dose, i.m. (squirrel monkeys).
MPTP was administered every third day until complete manifestation of parkinsonian motor symptomatology was obtained, i.e. akinesia, lack of responsiveness to stimulation, inability to climb, to feed autonomously, and to groom. Thirty points min. (as will be defined in the explanation of FIG. 1) had to be obtained during the 48-60 hours following the last MPTP administration; then animals in pairs were subdivided at random into two treatment groups, i.e. treatment with GM1 or with saline solution. […]
In particular, the following functions were recorded: overall activity, ability to climb, locomotion/gait, upper and lower limb movements, detailed motor ability, bradykinesia/akinesia, dyskinesia/dystonia, carriage, tremor, balance, grooming ability, sudden immobility during movements, and ability to feed. […]
FIGS. 1 and 2 are now being considered in detail. […] Columns represent the average points (±S.D.); normal point is 0, MPTP points are the points recorded after the last MPTP injection but prior to the administration of associated GM1-saline solution. […]

Experiment [2] has as its system MPTP-treated squirrel monkeys. Put plainly: food grasping test in MPTP-treated squirrel monkeys. The conditions noted are these: GM1 30 mg/kg/day i.m., investigation end. The protocol:
Tests on squirrel monkeys, which concerned simple motor functions (e.g. capability of grasping food placed in deep containers), were intended to determine the response time and evaluate limb functional use. In particular, monkeys were trained to grasp raisins from a Plexiglas platform accommodating 9.5 mm dia. wells. The time taken to start grasping and the number of raisins grasped in a 6-minute time limit were recorded. All the aforesaid tests were carried out before the first meal of the day.
Normal monkeys started response on sighting the food container.
Normal squirrel monkeys succeeded in grasping 100% food. Soon after MPTP administration, all monkeys were endangered and grasped approx. 15% food. Within the third week of treatment, the monkeys treated with GM1—compared with those treated with saline solution—grasped a higher amount of food. At the investigation end, the former grasped 100% food whereas the latter grasped only 25% food (*p<0.05).

Experiment [3] deals with MPTP-treated cynomolgus monkeys. Put plainly: object grasping test in MPTP-treated cynomolgus monkeys. The following applies: GM1 15 mg/kg/day i.m., investigation end. The protocol: The behaviour and neurologic functions of cynomolgus monkeys were also tested. Said monkeys were also trained to grasp an object, which has proven to be indicative of the motor and cognitive functions of MPTP-treated monkeys (Taylor J. R. et al., Brain, 113, 617, 1990).
The grasping test was carried out according to Diamond A.: “The development and neural bases of higher cognitive functions”, Annals of the New York Academy of Sciences, vol. 608, A. Diamond Ed. (The New York Academy of Sciences, New York, 637-676, 1990).
Briefly, monkeys were trained to stretch their arm out of their cage to grasp food (raisins or apple) from a Plexiglas box (15 cm×15 cm×5 cm), open on one side and fastened to a platform allowing side movement and rotation.
The box open side could happen to be in front of, on the left or on the right side of the monkey. Each experiment consisted of 30 tests. The following events were recorded: successful arm stretchings (food grasped at the first attempt), correct stretchings (food grasped after various attempts), and “barrier” stretchings (i.e. towards the closed side of the box rather than-around the box until reaching the open side of same). Should no food be grasped within 5 minutes, the test was judged to be without response.
FIG. 2 illustrates the effects produced by MPTP and GM1 on cynomolgus monkeys in the “object grasping” test. […]

With monosialoganglioside [GM1], the “motor behaviour at the investigation end” value in experiment [1] (GM1 30 mg/kg/day i.m., p<0.01 vs saline solution) is reported as “almost normal behaviour”. Besides, in experiment [1] (GM1 chronic i.m. administration, end of 6-8 weeks' investigation, MPTP monkeys, species not separated (FIG. 1)), the recovered motor behaviour is 86-89%. Also, the “response start time in food grasping test” value in experiment [2] (p<0.002 vs saline solution) is “started response almost immediately”. Further, the “food per cent amount grasped during the test” value in experiment [2] (saline solution 25%, normal 100%) was determined as 100%. Moreover, in experiment [3], the “object grasping test performance” value was “fulfilled the task almost perfectly”.
